Data published in patent US5525627A, “Esters of acyl carnitines with long-chain aliphatic alcohols and pharmaceutical compositions containing same having antimycotic activity” (Sigma-Tau Industrie Farmaceutiche Riunite S.p.A., priority 1992, dated 1996).
Values joined by “and” are separate entries in the source; they are usually repeats but may differ in a detail not shown here. Equal entries are not always repeated.

Assays:
[1] = Test 2: weight of murine lymphoid organs after repeated oral administrations; assay type: in vivo, mice (male B6 D2 F1); details: 100 mg/kg/day oral, 7 consecutive days; x ± S.E.
Protocol: Test 2: Evaluation of the effect of repeated oral administrations of ST 722 on the weight of murine lymphoid organs (spleen and thymus).
Male B6 D2 F1 mice (C. River) aged 7 weeks (7-8 animals each group) were orally treated with the substance ST 722 at the dose of 100 mg/kg/day for 7 consecutive days. Twenty-four hours after the last administration, the animals were sacrificed, the organs removed and weighed.

peritoneal macrophages = experiment: Test 4: peritoneal macrophage number in mice; assay type: in vivo, mice (male B6 D2 F1); details: 100 mg/kg/day oral, 5 consecutive days
Protocol: Test 4: Evaluation of the effect of repeated oral administrations of ST 722 on the peritoneal macrophage number in mice.
Male B6 D2 F1 mice (C. River) aged 10 weeks (6 animals each group) were orally treated with the substance ST 722 at the dose of 100 mg/kg/day for 5 consecutive days. Twenty-four hours after the last administration, the animals were sacrificed, the peritoneal exudate cells (PEC) collected and the macrophage number determined.

[2] = system: Epidermophyton floccosum (IHEM 3495); experiment: MIC for dermatophytic fungi; assay type: cell-based; details: 35° C., 96 hours, read-out: Minimal Inhibitory Concentration (MIC)
Protocol: (§1) The following strains were used: Trichophyton menthagrophytes ATCC 9533, Trichophyton rubrum IHEM 4274, Microsporum canis IHEM 3522, Epydermophyton floccosum IHEM 3495. The tested substances were: ST 722, ST 1033, ST 1037, ST 1050, ST 1051, ST 1052,. ST 1053.
(§2) The assay was performed following the same procedure described for the yeasts, by using 7-day fungi cultures grown at 30° C. in Potato Dextrose agar, and harvested with Sabouraud broth and Tween 80 (0.5%).
(§3) After washing with Yeast Nitrogen Base, supplemented with asparagine and glucose (as carbon source), the fungal suspension was fragmented using a tissue grinder until the largest clumps or aggregates were undetectable within the grinder. This fungal suspension was then appropriately diluted in YNB to yield a concentration of 2.0×10^5 infective particles/ml (small mycelium fragments, micro-and macroaleuriospores).
(§4) Volumes of 100 μl both of the fungal suspensions and substance solutions, two-fold serially diluted in assay medium, were distributed into each well of a microtiter plate (96 wells, round bottom), which was incubated at 35° C. for 96 hours.

[3] = system: Microsporum canis (IHEM 3522); experiment: MIC for dermatophytic fungi; assay type: cell-based; details: 35° C., 96 hours, read-out: Minimal Inhibitory Concentration (MIC)
Protocol: as §1, §2, §3, §4

[4] = system: Trichophyton menthagrophites (ATCC 9533); experiment: MIC for dermatophytic fungi; assay type: cell-based; details: ATCC9533, 35° C., 96 hours, read-out: Minimal Inhibitory Concentration (MIC)
Protocol: as §1, §2, §3, §4

[5] = system: Trichophyton rubrum (IHEM 4274); experiment: MIC for dermatophytic fungi; assay type: cell-based; details: 35° C., 96 hours, read-out: Minimal Inhibitory Concentration (MIC)
Protocol: as §1, §2, §3, §4

C. albicans ISS 1 = experiment: Experimental subcutaneous infection with Candida albicans in mice; assay type: in vivo, Candida albicans in mice (male CD1 outbred)
Protocol: Male CD1 outbred mice (IFFA Credo) aged 8 weeks were used (4 animals per group).
A pathogenic strain of Candida was used, namely C. albicans ISS 1.
The infected animals were treated with ST 722 dissolved in saline, and Miconazole diluted in saline from a stock solution containing 1% Dimethyl Formamide.
From an overnight broth culture of C. albicans in Sabouraud broth, a fungal suspension was prepared in sterile saline containing 5.0×10^5 cells/mi. An inoculum of 0.5 ml of this suspension was injected subcutaneously into the abdominal wall of each animal.
The compounds were then administered by subcutaneous injection in the same area of the fungal challenge at the dose of 50 mcg (in 0.2 ml of saline) immediately after the inoculum and following 48 and 96 hours (150 total mcg per animal).
Then, 48 hours following the last treatment (6 days after the challenge with Candida), the animals were sacrificed, and the abdominal wall as well as the peritoneum were dissected out.
The excised tissues were then homogenized in 5 ml of sterile saline with a Potter-Elvehjem tissue grinder. The resulting suspensions, appropriately diluted, where plated onto Petri dishes containing a selective agar medium (BIGGY agar), which allows to easily detect the yeast Colony Forming Units (CFU/ml).
The number of colonies scored in a series of dilutions for each single sample consents to calculate the number of yeast cells present in the infected tissue sample as follows: [formula] Where Zi is the number of dilutions performed, Ni is the number of plates prepared for each dilution, and Ci is the total number of yeast cells scored in each dilution.

C. albicans PG = experiment: Systemic experimental infection with Candida albicans in mice; assay type: in vivo, Candida albicans in mice (male CD1); details: for % Mortality / Dead/Total: 60 days follow-up; for MST (mean survival time): range of variation in brackets, footnote p ≤ 0.05 (MannWithney "U" test), mark lost
Protocol: Male CD1 mice (C. River) aged 6 or 13 weeks were used (12-15 animals per group).
The pathogenic strain of Candida utilized, i.e. C. albicans PG, was able, when inoculated intravenously, to cause multiple renal lesions and systemic dissemination, provoking death of the animals within 40 days from the challenge.
A broth culture in Sabouraud broth is prepared from a 48-hour agar slant culture.
After incubation for 48 hours at 37° C., the broth culture is first washed 3 times with sterile saline, then adjusted to a concentration of 2.0×10^6 cells/ml. Volumes of 0.25 ml of this suspension are i.v. injected into the animals, with a resulting infective dose approximately corresponding to DL100.
ST 722 was administered per os following two different protocols:
I) 100 mg/kg administered at +2, +12, +24, +36 and +48 hours (i.e. 5 administrations in two days) with respect to the challenge.
II) 100 mg/kg administered twice daily on 6 consecutive days (i.e. 12 adimistrations) starting from day -2 to day +3 with respect to the day of inoculation (day 0).
After the challenge, the animals were followed up for 60 days, and the percent mortality as well as the mean survival time (MST) were evaluated. The statistical significance of the results was evaluated by means of Fisher "exact test" and Mann-Withney "U" test, respectively.

[6] = protocol I: 100 mg/kg per os at +2, +12, +24, +36, +48 hours
[7] = protocol II: 100 mg/kg per os twice daily, day -2 to day +3

Work on `CCCCCCCCCCCOC(=O)C[C@H](C[N+](C)(C)C)OC(=O)CC(C)C` [ST 722, isovaleryl-L-carnitine undecyl ester chloride] yielded a Body weight [1] of 22.74 ± 0.37 g, a Spleen weight [1] of 77.88 ± 2.38 mg and a Thymus weight [1] of 52.88 ± 3.20 mg. The “toxic effect in PEC macrophage population” value (peritoneal macrophages) was “No toxic effect has been observed”, the “PEC Mo” value (peritoneal macrophages; 6 pooled samples) was 63% and the Body weight (peritoneal macrophages; ± S.E., 6 animals) was 28.13 ± 1.30 g. The “increase in the peritoneal macrophages number” value (peritoneal macrophages; versus control) was “about 60%”, the MIC [2] was 50 µg/mL and the MIC [3] was 25 µg/mL. The MIC [4] was 25 µg/mL, the MIC [5] was 12.5 µg/mL and the CFU/mouse (C. albicans ISS 1; individual samples 1-4, 50 mcg s.c. at 0, 48 and 96 hours (150 total mcg per animal)) was “sterile and 1.36 × 10^2 CFU/mouse”. The “effect on the infection with Candida” value (C. albicans ISS 1; s.c., 150 total mcg per animal) was “substantially inhibits the infection with Candida”, the “sterile samples out of 4” value (C. albicans ISS 1; s.c., 150 total mcg per animal) was 3 samples and the “protective effect” value (C. albicans PG; protocol I and II, per os) was “only in terms of MST prolongation”. For the same compound, the “% Mortality” value (C. albicans PG; [6]) was 71.4%, the Dead/Total (C. albicans PG; [6]) was 10/14 and the “MST (mean survival time)” value (C. albicans PG; protocol I) was 37 (25-≥60) days. The “percent mortality” value (C. albicans PG; protocol II, per os) was “completely unaffected”, the “% Mortality” value (C. albicans PG; [7]) was 71.4% and the Dead/Total (C. albicans PG; [7]) was 10/14. The “MST (mean survival time)” value (C. albicans PG; protocol II) was 44 (32-≥60) days.
